Experimental data published in PMC10746543, “Design principles for cyclin K molecular glue degraders” (Nature Chemical Biology, 2023).
Values joined by “and” are separate entries in the source; they are usually repeats but may differ in a detail not shown here. Identical values can stand only once. Like-named read-outs stand apart in the source and are kept apart here.

Assays:
[1] = test system: cyclin K–eGFP degradation reporter; test: Cyclin K reporter stability analysis (dual-color cyclin K–eGFP reporter); format: cell-based, human; settings: for reporter assay signal (normalized): replicates; for Normalized GFP/mCheery: flow source data
Outline: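 A 5 h treatment of HEK293T–Cas9 cells expressing the degradation reporter preceded flow cytometry; eGFP over mCherry, normalized to DMSO.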

CDK9–cyclin T = biological target: T1, CDK9–cyclin T (Homo sapiens, UniProt P50750); test: Lanthascreen kinase binding assay, CDK9
T1 construct: purchased Thermo Fisher
T1 sequence (P50750 whole entry): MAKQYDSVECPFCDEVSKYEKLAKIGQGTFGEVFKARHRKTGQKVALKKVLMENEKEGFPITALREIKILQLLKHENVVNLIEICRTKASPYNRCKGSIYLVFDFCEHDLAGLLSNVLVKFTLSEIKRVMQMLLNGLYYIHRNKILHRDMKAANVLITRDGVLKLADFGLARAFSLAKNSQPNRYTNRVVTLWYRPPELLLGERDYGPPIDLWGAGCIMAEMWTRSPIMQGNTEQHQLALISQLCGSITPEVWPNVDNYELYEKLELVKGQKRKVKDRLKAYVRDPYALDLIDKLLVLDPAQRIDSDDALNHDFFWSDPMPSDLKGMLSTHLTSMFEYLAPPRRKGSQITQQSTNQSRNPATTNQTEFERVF
T1 sequence (O60563 whole entry partner): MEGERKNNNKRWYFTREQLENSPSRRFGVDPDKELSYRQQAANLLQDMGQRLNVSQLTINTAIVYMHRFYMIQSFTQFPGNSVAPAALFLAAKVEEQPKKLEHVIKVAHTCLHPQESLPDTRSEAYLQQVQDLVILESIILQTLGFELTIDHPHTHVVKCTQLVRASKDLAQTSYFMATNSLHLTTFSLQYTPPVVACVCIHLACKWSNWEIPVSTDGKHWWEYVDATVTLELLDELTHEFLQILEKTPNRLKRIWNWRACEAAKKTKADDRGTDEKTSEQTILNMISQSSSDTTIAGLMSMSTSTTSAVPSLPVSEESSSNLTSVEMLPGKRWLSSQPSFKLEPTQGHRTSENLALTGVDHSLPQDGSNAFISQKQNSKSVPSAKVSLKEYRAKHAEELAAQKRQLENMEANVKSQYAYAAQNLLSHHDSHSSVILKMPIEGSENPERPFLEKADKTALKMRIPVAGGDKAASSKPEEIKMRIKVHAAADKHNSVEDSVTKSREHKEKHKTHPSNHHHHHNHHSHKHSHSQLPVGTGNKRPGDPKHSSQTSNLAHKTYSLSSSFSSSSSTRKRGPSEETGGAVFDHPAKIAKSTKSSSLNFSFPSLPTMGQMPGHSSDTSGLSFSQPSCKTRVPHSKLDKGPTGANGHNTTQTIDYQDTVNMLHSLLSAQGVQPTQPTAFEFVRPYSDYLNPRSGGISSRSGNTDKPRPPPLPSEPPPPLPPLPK
Description: (§1) Lanthascreen experiments were performed using commercially available reagents (Thermo Fisher) and according to the manufacturer’s instructions.

CDK12–cyclin K and DDB1 = biological target: T2, CDK12–cyclin K and DDB1 (Homo sapiens, UniProt Q16531+Q9NYV4, K965R); test: TR-FRET ternary complex formation assay (compound titration); format: binding
T2 construct: His6–CDK12 (a.a. 713–1,052); full-length or beta-propeller B domain deletion (ΔBPB: a.a. 396–705 deleted) constructs of His6–DDB1ΔBPB, StrepII–Avi–DDB1, or His6–Spy–DDB1; made in house; host or cells: Trichoplusia ni High Five insect cells (baculovirus)
T2 sequence (Q9NYV4 713-1052 K965R): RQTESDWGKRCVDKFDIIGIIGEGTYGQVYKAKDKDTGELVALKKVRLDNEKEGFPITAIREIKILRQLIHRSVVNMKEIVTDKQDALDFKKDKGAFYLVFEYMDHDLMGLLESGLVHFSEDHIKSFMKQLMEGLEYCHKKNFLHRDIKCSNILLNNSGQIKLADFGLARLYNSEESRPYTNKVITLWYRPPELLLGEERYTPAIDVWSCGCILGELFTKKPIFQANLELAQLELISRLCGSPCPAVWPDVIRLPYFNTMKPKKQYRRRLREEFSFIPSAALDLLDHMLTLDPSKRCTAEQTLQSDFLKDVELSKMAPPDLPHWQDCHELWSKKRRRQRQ
T2 sequence (O75909 1-267 partner): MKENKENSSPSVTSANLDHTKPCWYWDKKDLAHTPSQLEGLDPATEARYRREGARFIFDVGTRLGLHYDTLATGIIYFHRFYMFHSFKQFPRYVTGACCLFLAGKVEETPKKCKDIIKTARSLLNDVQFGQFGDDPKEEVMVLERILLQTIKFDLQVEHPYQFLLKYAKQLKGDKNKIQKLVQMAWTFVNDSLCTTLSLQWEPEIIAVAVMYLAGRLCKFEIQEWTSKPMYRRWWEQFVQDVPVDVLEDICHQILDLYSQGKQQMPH
T2 sequence (Q16531 whole entry): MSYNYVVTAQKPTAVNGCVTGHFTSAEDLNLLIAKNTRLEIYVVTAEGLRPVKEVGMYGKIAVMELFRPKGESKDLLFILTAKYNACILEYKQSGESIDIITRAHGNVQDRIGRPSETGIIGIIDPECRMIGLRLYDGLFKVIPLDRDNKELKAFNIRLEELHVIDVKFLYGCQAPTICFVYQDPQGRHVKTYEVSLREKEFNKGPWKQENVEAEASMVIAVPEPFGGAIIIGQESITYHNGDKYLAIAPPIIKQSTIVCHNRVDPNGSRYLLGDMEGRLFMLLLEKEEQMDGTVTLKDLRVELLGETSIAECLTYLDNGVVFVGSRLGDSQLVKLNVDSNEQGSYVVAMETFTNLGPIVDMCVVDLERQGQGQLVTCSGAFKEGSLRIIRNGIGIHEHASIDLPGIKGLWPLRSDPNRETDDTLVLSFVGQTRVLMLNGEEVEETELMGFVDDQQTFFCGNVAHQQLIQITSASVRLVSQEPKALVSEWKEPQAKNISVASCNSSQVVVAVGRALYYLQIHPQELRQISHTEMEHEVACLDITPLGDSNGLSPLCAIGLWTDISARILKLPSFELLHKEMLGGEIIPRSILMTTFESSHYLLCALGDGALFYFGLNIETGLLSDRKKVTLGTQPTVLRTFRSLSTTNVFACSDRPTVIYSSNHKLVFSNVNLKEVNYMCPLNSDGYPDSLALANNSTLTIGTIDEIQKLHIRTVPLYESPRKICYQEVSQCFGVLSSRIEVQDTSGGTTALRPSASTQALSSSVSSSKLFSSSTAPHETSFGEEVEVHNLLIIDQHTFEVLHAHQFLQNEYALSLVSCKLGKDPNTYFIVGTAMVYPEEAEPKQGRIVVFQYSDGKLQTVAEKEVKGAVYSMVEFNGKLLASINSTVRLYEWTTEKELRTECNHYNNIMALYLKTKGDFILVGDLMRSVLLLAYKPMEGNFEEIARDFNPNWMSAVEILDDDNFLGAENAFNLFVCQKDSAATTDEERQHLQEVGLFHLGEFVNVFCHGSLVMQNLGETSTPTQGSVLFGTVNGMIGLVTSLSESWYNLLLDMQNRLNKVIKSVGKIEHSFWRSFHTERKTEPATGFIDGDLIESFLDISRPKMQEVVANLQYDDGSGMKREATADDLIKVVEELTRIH
Outline: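 A time delay of 70 μs preceded acquisition, limiting background fluorescence; the ratio of emission at 520 versus 490 nm gave the TR-FRET value.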

CDK2–cyclin A = biological target: T3, CDK2–cyclin A (Homo sapiens, UniProt P24941); test: Lanthascreen kinase binding assay, CDK2; settings: for Lanthascreen signal, sheet CDK2: raw replicates
T3 construct: purchased Thermo Fisher
Description: as §1

C[C@H](C(=O)Nc1nc2ccccc2[nH]1)N1Cc2ccccc2C1=O [compound 919278]
reporter assay signal (normalized) ([1]; 5 nM): 0.9951 and 0.9832 | reporter assay signal (normalized) ([1]; 10.7 nM): 0.9896 and 0.9546 | Normalized GFP/mCheery ([1]; 22.9 nM, HEK293T): 0.8457 | reporter assay signal (normalized) ([1]; 22.9 nM): 0.9344 and 0.9583 | Normalized GFP/mCheery ([1]; 48.9 nM, HEK293T): 0.8139 | reporter assay signal (normalized) ([1]; 48.9 nM): 0.9381 and 0.9234 | Normalized GFP/mCheery ([1]; 105 nM, HEK293T): 0.8144 | reporter assay signal (normalized) ([1]; 105 nM): 0.9087 and 0.8866 | reporter assay signal (normalized) ([1]; 224 nM): 0.8755 and 0.8691 | Normalized GFP/mCheery ([1]; 478 nM, HEK293T): 0.7219 | reporter assay signal (normalized) ([1]; 478 nM): 0.8011 and 0.8332 | reporter assay signal (normalized) ([1]; 2190 nM): 0.7799 and 0.7725 | reporter assay signal (normalized) ([1]; 4680 nM): 0.7431 and 0.7578 | Normalized GFP/mCheery ([1]; 10000 nM, HEK293T): 0.6269 | reporter assay signal (normalized) ([1]; 10000 nM): 0.7256 and 0.8167 | cyclin K reporter degradation, result in words ([1]; HEK293T): weaker | DC50 ([1]; source data sheet correlations, read-out: DC50): 176 nM | IC50 (CDK9–cyclin T; Lanthascreen, average, Extended Data Fig. 8, read-out: CDK9 IC50): 120 nM | Lanthascreen TR-FRET signal (raw ratio), sheet CDK9 (CDK9–cyclin T; compound 0.038147 nM, fourth titration set (r37), triplicates): 0.0408 and 0.04808 and 0.04479 | Lanthascreen TR-FRET signal (raw ratio), sheet CDK9 (CDK9–cyclin T; compound 0.038147 nM, second titration set (r13), duplicates): 0.01436 and 0.01414 | Lanthascreen TR-FRET signal (raw ratio), sheet CDK9 (CDK9–cyclin T; compound 0.152588 nM, fourth titration set (r37), triplicates): 0.0398 and 0.0481 and 0.0499 | Lanthascreen TR-FRET signal (raw ratio), sheet CDK9 (CDK9–cyclin T; compound 0.152588 nM, second titration set (r13), duplicates): 0.01385 and 0.01395 | Lanthascreen TR-FRET signal (raw ratio), sheet CDK9 (CDK9–cyclin T; compound 0.610352 nM, fourth titration set (r37), triplicates): 0.03905 and 0.04639 and 0.04821 | Lanthascreen TR-FRET signal (raw ratio), sheet CDK9 (CDK9–cyclin T; compound 0.610352 nM, second titration set (r13), duplicates): 0.01357 and 0.01395 | Lanthascreen TR-FRET signal (raw ratio), sheet CDK9 (CDK9–cyclin T; compound 9.76563 nM, fourth titration set (r37), triplicates): 0.03561 and 0.04225 and 0.04097 | Lanthascreen TR-FRET signal (raw ratio), sheet CDK9 (CDK9–cyclin T; compound 9.76563 nM, second titration set (r13), duplicates): 0.01332 and 0.01366 | Lanthascreen TR-FRET signal (raw ratio), sheet CDK9 (CDK9–cyclin T; compound 39.0625 nM, fourth titration set (r37), triplicates): 0.02645 and 0.03287 and 0.03192 | Lanthascreen TR-FRET signal (raw ratio), sheet CDK9 (CDK9–cyclin T; compound 39.0625 nM, second titration set (r13), duplicates): 0.01225 and 0.01118 | Lanthascreen TR-FRET signal (raw ratio), sheet CDK9 (CDK9–cyclin T; compound 156.25 nM, fourth titration set (r37), triplicates): 0.01751 and 0.01989 and 0.01852 | Lanthascreen TR-FRET signal (raw ratio), sheet CDK9 (CDK9–cyclin T; compound 156.25 nM, second titration set (r13), duplicates): 0.008604 and 0.00887 | Lanthascreen TR-FRET signal (raw ratio), sheet CDK9 (CDK9–cyclin T; compound 625 nM, fourth titration set (r37), triplicates): 0.008779 and 0.01074 and 0.01058 | Lanthascreen TR-FRET signal (raw ratio), sheet CDK9 (CDK9–cyclin T; compound 625 nM, second titration set (r13), duplicates): 0.005642 and 0.005316 | Lanthascreen TR-FRET signal (raw ratio), sheet CDK9 (CDK9–cyclin T; compound 2500 nM, fourth titration set (r37), triplicates): 0.006189 and 0.006358 and 0.00654 | Lanthascreen TR-FRET signal (raw ratio), sheet CDK9 (CDK9–cyclin T; compound 2500 nM, second titration set (r13), duplicates): 0.00388 and 0.003855 | Lanthascreen TR-FRET signal (raw ratio), sheet CDK9 (CDK9–cyclin T; compound 10000 nM, fourth titration set (r37), triplicates): 0.00467 and 0.004911 and 0.00523 | Lanthascreen TR-FRET signal (raw ratio), sheet CDK9 (CDK9–cyclin T; compound 10000 nM, second titration set (r13), duplicates): 0.003154 and 0.003151 | TR-FRET signal (CDK12–cyclin K and DDB1; compound concentration 0.468 nM): 0.3356 and 0.3148 | TR-FRET signal (CDK12–cyclin K and DDB1; compound concentration 2.16 nM): 0.4152 and 0.4184 | TR-FRET signal (CDK12–cyclin K and DDB1; compound concentration 3.6 nM): 0.5887 and 0.6016 | TR-FRET signal (CDK12–cyclin K and DDB1; compound concentration 7.92001 nM): 0.8771 and 0.9002 | TR-FRET signal (CDK12–cyclin K and DDB1; compound concentration 15.84 nM): 1.301 and 1.376 | TR-FRET signal (CDK12–cyclin K and DDB1; compound concentration 30.96 nM): 2 and 2.052 | TR-FRET signal (CDK12–cyclin K and DDB1; compound concentration 62.6401 nM): 2.747 and 2.77 | TR-FRET signal (CDK12–cyclin K and DDB1; compound concentration 125.28 nM): 3.33 and 3.298 | TR-FRET signal (CDK12–cyclin K and DDB1; compound concentration 244.8 nM): 3.75 and 3.634 | TR-FRET signal (CDK12–cyclin K and DDB1; compound concentration 993.601 nM): 4.177 and 4.02 | TR-FRET signal (CDK12–cyclin K and DDB1; compound concentration 2001.6 nM): 4.179 and 4.0366 | EC50 (CDK12–cyclin K and DDB1; in vitro complex formation, 50 nM CDK12–cyclin K, 100 nM DDB1, text and figures, read-out: TR-FRET EC50): 38 ± 1 nM | EC50 (CDK12–cyclin K and DDB1; sheet MOESM7, read-out: log TR-FRET EC50 (converted)): 37.8 nM | EC50 (CDK12–cyclin K and DDB1; source data sheet correlations, read-out: TR-FRET EC50): 37.8 nM | Lanthascreen signal, sheet CDK2 (CDK2–cyclin A; Compound 0.038147 nM, experiment r13-r23): 0.01269 and 0.01352 | Lanthascreen signal, sheet CDK2 (CDK2–cyclin A; Compound 0.038147 nM, experiment r48-r58): 0.008606 and 0.009047 | Lanthascreen signal, sheet CDK2 (CDK2–cyclin A; Compound 0.038147 nM, experiment r60-r70): 0.02095 and 0.02064 and 0.01986 | Lanthascreen signal, sheet CDK2 (CDK2–cyclin A; Compound 0.152588 nM, experiment r13-r23): 0.01305 and 0.01362 | Lanthascreen signal, sheet CDK2 (CDK2–cyclin A; Compound 0.152588 nM, experiment r48-r58): 0.00965 and 0.01047 | Lanthascreen signal, sheet CDK2 (CDK2–cyclin A; Compound 0.152588 nM, experiment r60-r70): 0.02036 and 0.02142 and 0.02063 | Lanthascreen signal, sheet CDK2 (CDK2–cyclin A; Compound 0.610352 nM, experiment r13-r23): 0.01272 and 0.01276 | Lanthascreen signal, sheet CDK2 (CDK2–cyclin A; Compound 0.610352 nM, experiment r48-r58): 0.009379 and 0.009611 | Lanthascreen signal, sheet CDK2 (CDK2–cyclin A; Compound 0.610352 nM, experiment r60-r70): 0.02437 and 0.01852 and 0.0217 | Lanthascreen signal, sheet CDK2 (CDK2–cyclin A; Compound 9.76563 nM, experiment r13-r23): 0.0128 and 0.01342 | Lanthascreen signal, sheet CDK2 (CDK2–cyclin A; Compound 9.76563 nM, experiment r48-r58): 0.0095 and 0.01028 | Lanthascreen signal, sheet CDK2 (CDK2–cyclin A; Compound 9.76563 nM, experiment r60-r70): 0.02195 and 0.02182 and 0.02183 | Lanthascreen signal, sheet CDK2 (CDK2–cyclin A; Compound 39.0625 nM, experiment r13-r23): 0.01226 and 0.01223 | Lanthascreen signal, sheet CDK2 (CDK2–cyclin A; Compound 39.0625 nM, experiment r48-r58): 0.009849 and 0.009843 | Lanthascreen signal, sheet CDK2 (CDK2–cyclin A; Compound 39.0625 nM, experiment r60-r70): 0.02238 and 0.0202 and 0.02147 | Lanthascreen signal, sheet CDK2 (CDK2–cyclin A; Compound 156.25 nM, experiment r13-r23): 0.01136 and 0.01335 | Lanthascreen signal, sheet CDK2 (CDK2–cyclin A; Compound 156.25 nM, experiment r48-r58): 0.009932 and 0.01021 | Lanthascreen signal, sheet CDK2 (CDK2–cyclin A; Compound 156.25 nM, experiment r60-r70): 0.02199 and 0.02222 and 0.02099 | Lanthascreen signal, sheet CDK2 (CDK2–cyclin A; Compound 625 nM, experiment r13-r23): 0.01232 and 0.01317 | Lanthascreen signal, sheet CDK2 (CDK2–cyclin A; Compound 625 nM, experiment r48-r58): 0.009318 and 0.009813 | Lanthascreen signal, sheet CDK2 (CDK2–cyclin A; Compound 625 nM, experiment r60-r70): 0.02407 and 0.01928 and 0.02248 | Lanthascreen signal, sheet CDK2 (CDK2–cyclin A; Compound 2500 nM, experiment r13-r23): 0.0114 and 0.013 | Lanthascreen signal, sheet CDK2 (CDK2–cyclin A; Compound 2500 nM, experiment r48-r58): 0.009215 and 0.009737 | Lanthascreen signal, sheet CDK2 (CDK2–cyclin A; Compound 2500 nM, experiment r60-r70): 0.02278 and 0.02094 and 0.0202 | Lanthascreen signal, sheet CDK2 (CDK2–cyclin A; Compound 10000 nM, experiment r13-r23): 0.01075 and 0.01117 | Lanthascreen signal, sheet CDK2 (CDK2–cyclin A; Compound 10000 nM, experiment r48-r58): 0.008396 and 0.009419 | Lanthascreen signal, sheet CDK2 (CDK2–cyclin A; Compound 10000 nM, experiment r60-r70): 0.02054 and 0.0167 and 0.01885 | IC50 (CDK2–cyclin A; Lanthascreen, average, Extended Data Fig. 8, read-out: CDK2 IC50): > 10000 nM | IC50 (CDK2–cyclin A; Supplementary Table 2, read-out: Lanthascreen IC50 [nM] CDK2): > 10000 nM
